Test results as given in US7998989B2, “2-Imino-1,3-thiazoline-based compounds and T-type calcium channel inhibitors containing the same” (Korea Institute of Science and Technology, priority 2007, dated 2011).

Key:
[1] = target: T1, α1G T-type calcium channel (Homo sapiens, UniProt O43497); assay: Assay for % inhibiting activity against T-type calcium channel using FDSS6000 (fluo-3 calcium imaging, KCl activation); assay type: cell-based; conditions: HEK293, 10 μM; HEK293 cells stably expressing α1G T-type calcium channel and Kir2.1; compounds of the examples; read-out: FDSS (% inhibition)/10uM
T1 construct: host or cells: HEK293
Summary of the method: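 Percent inhibition derived from […] area against untreated control (100%), after 75 s compound pre-exposure and 75 mM KCl activation. Cells: HEK293 with stable α1G plus Kir2.1, fluo-3/AM-labelled (5 μM), assayed in pH 7.4 HEPES containing 10 mM CaCl2.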

T1 sequence (O43497 whole entry): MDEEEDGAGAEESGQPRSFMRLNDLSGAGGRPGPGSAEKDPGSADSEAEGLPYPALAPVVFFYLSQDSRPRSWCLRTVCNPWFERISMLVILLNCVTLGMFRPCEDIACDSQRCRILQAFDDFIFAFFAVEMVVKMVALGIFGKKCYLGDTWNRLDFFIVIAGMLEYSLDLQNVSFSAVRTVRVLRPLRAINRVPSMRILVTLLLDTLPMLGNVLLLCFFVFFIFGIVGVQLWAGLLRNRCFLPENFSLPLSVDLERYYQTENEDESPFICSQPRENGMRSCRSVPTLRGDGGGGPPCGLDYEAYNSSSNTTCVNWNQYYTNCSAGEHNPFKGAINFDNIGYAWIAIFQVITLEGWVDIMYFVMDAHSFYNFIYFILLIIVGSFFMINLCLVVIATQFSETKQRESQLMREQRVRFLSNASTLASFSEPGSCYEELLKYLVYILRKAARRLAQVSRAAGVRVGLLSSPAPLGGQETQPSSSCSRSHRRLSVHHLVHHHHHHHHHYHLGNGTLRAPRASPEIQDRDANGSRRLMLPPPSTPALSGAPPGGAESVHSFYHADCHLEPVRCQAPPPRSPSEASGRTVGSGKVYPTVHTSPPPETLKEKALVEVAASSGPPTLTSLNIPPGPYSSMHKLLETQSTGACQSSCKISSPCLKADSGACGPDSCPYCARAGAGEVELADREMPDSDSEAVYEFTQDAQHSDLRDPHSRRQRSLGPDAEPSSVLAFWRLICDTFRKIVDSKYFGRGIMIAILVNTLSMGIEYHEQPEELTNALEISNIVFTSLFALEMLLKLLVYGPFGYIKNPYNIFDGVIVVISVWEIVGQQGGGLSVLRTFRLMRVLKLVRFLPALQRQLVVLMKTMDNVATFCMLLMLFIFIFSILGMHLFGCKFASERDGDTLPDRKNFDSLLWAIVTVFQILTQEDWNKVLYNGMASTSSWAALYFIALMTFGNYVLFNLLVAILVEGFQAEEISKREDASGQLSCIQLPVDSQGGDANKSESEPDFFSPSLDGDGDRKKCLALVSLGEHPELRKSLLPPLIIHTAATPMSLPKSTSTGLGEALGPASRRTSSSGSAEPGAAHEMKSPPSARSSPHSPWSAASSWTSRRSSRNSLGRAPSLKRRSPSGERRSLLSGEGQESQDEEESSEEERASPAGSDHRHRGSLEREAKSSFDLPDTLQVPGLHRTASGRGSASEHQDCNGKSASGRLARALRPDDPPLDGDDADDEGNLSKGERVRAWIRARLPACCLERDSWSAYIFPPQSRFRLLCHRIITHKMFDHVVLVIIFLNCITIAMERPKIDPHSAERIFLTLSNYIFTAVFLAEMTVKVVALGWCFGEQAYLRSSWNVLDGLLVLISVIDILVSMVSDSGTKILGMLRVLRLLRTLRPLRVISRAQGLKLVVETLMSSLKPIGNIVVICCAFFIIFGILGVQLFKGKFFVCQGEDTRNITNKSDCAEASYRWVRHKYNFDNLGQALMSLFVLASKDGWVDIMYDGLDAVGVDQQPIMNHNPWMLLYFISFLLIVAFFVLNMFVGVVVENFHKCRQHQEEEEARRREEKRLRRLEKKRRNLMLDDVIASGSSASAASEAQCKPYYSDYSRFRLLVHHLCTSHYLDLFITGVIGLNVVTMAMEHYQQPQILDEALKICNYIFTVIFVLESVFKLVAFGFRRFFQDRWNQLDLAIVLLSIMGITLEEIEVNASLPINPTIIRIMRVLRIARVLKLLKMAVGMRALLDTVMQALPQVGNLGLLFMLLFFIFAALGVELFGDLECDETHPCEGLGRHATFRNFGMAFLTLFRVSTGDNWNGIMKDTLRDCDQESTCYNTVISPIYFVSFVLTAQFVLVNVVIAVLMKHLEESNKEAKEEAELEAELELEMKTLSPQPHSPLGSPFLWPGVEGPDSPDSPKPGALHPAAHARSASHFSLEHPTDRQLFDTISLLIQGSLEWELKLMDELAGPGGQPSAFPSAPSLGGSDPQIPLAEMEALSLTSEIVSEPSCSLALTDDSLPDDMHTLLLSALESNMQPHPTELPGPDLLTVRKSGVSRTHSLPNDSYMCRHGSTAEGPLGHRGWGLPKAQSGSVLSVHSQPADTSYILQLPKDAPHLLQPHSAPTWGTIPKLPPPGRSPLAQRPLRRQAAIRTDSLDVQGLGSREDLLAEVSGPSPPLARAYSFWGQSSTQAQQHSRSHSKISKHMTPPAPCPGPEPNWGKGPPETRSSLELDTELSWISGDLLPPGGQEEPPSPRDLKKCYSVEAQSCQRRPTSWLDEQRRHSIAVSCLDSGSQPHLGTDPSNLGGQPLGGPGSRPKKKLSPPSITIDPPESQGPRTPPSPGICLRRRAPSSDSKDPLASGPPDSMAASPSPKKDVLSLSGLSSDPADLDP

| SMILES | inhibition at 10 µM [1] [%] | melting point [°C] |
| --- | --- | --- |
| CCCCc1ccc(NC(=O)CC2CSC(=NC3CCCCC3)N2CCC)cc1.Cl (stereo not shown) [KHG24291, [2-cyclohexylimino-3-(n-propyl)-1,3-thiazolidine-4-yl]-N-(4-n-butylphenyl)-acetamide hydrochloride] | 63.2 | 201.4 |
| CCN1C(=NC2CCCCC2)SCC1CC(=O)NCc1ccc(C)cc1.Cl (stereo not shown) [KHG24292, (2-cyclohexylimino-3-ethyl-1,3-thiazolidine-4-yl)-N-(4-methylbenzyl)-acetamide hydrochloride] | 43.9 | 172.6 |
| CCCN1C(=NC2CCCCC2)SCC1CC(=O)NCc1ccc(C)cc1.Cl (stereo not shown) [KHG24293, [2-cyclohexylimino-3-(n-propyl)-1,3-thiazolidine-4-yl]-N-(4-methylbenzyl)-acetamide hydrochloride] | 55.8 | 189.5 to 191.2 |
| CCCN1C(=NC2CCCCC2)SCC1CC(=O)Nc1ccc(C(C)C)cc1.Cl (stereo not shown) [KHG24294, [2-cyclohexylimino-3-(n-propyl)-1,3-thiazolidine-4-yl]-N-(4-isopropylphenyl)-acetamide hydrochloride] | 65.7 | 207 |
| CCCN1C(=NC2CCCCC2)SCC1CC(=O)Nc1cc([N+](=O)[O-])ccc1F.Cl (stereo not shown) [KHG24295, [2-cyclohexylimino-3-(n-propyl)-1,3-thiazolidine-4-yl]-N-(2-fluoro-5-nitrophenyl)-acetamide hydrochloride] | 36.2 | 139.2 |
| CCCN1C(=NC2CCCCC2)SCC1CC(=O)Nc1ccc(F)cc1.Cl (stereo not shown) [KHG24296, [2-cyclohexylimino-3-(n-propyl)-1,3-thiazolidine-4-yl]-N-(4-fluorophenyl)-acetamide hydrochloride] | 53.1 | 169.7 |
| CCCN1C(=NC2CCCCC2)SCC1CC(=O)Nc1ccc(C)cc1.Cl (stereo not shown) [KHG24297, [2-cyclohexylimino-3-(n-propyl)-1,3-thiazolidine-4-yl]-N-(4-methylphenyl)-acetamide hydrochloride] | 51 | 188.9 |
| CCCN1C(=NC2CCCCC2)SCC1CC(=O)Nc1ccc(CC)cc1.Cl (stereo not shown) [KHG24298, [2-cyclohexylimino-3-(n-propyl)-1,3-thiazolidine-4-yl]-N-(4-ethylphenyl)-acetamide hydrochloride] | 60.4 | 221.4 |
| Cl.O=C(CC1CSC(=NC2CCCCC2)N1Cc1ccccc1)Nc1ccc(Cl)cc1 (stereo not shown) [KHG24299, (2-cyclohexylimino-3-benzyl-1,3-thiazolidine-4-yl)-N-(4-chlorophenyl)-acetamide hydrochloride] | 45.6 | 199 |
| Cl.O=C(CC1CSC(=NC2CCCCC2)N1Cc1ccccc1)Nc1ccc(Br)cc1 (stereo not shown) [KHG24300, (2-cyclohexylimino-3-benzyl-1,3-thiazolidine-4-yl)-N-(4-bromophenyl)-acetamide hydrochloride] | 36.7 | 181.4 |
| CC(C)c1ccc(NC(=O)CC2CSC(=NC3CCCCC3)N2Cc2ccccc2)cc1.Cl (stereo not shown) [KHG24303, (2-cyclohexylimino-3-benzyl-1,3-thiazolidine-4-yl)-N-(4-isopropylphenyl)-acetamide hydrochloride] | 31.1 | 202.9 |
| Cl.O=C(CC1CSC(=NC2CCCCC2)N1Cc1ccccc1)Nc1ccc(F)cc1 (stereo not shown) [KHG24305, (2-cyclohexylimino-3-benzyl-1,3-thiazolidine-4-yl)-N-(4-fluorophenyl)-acetamide hydrochloride] | 58.9 | 214.1 |
| CCc1ccc(NC(=O)CC2CSC(=NC3CCCCC3)N2Cc2ccccc2)cc1.Cl (stereo not shown) [KHG24306, (2-cyclohexylimino-3-benzyl-1,3-thiazolidine-4-yl)-N-(4-ethylphenyl)-acetamide hydrochloride] | 53.2 | 146.4 |
| Cl.O=C(CC1CSC(=NC2CCCCC2)N1C1CC1)Nc1ccc(Oc2ccccc2)cc1 (stereo not shown) [KHG24315, (2-cyclohexylimino-3-cyclopropyl-1,3-thiazolidine-4-yl)-N-(4-phenoxyphenyl)-acetamide hydrochloride] | 60.8 | 195 |
| CN1C(=NC2CCCCCC2)SCC1C(=O)NCc1cccc(Cl)c1.Cl (stereo not shown) [KHG24336, (2-cycloheptylimino-3-methyl-1,3-thiazolidine-4-yl)-N-(3-chlorobenzyl)-carboxamide hydrochloride] | 60.1 | 230 to 231 |
| CN1C(=NC2CCCCCC2)SCC1C(=O)NCc1ccc(Cl)cc1.Cl (stereo not shown) [KHG24337, (2-cycloheptylimino-3-methyl-1,3-thiazolidine-4-yl)-N-(4-chlorobenzyl)-carboxamide hydrochloride] | 56.6 | 220 to 222 |

Other lines, results leading:

| inhibition at 10 µM [1] [%] | melting point [°C] | SMILES |
| --- | --- | --- |
| 70.8 | 218 to 219 | CN1C(=NC2CCCCCC2)SCC1C(=O)NCc1ccc(Cl)c(Cl)c1.Cl (stereo not shown) [KHG24338, (2-cycloheptylimino-3-methyl-1,3-thiazolidine-4-yl)-N-(3,4-dichlorobenzyl)-carboxamide hydrochloride] |
| 44.2 | 156 to 159 | COc1ccc(CNC(=O)C2CSC(=NC3CCCCCC3)N2C)cc1.Cl (stereo not shown) [KHG24339, (2-cycloheptylimino-3-methyl-1,3-thiazolidine-4-yl)-N-(4-methoxybenzyl)-carboxamide hydrochloride] |
| 49.1 | 196.5 | CCN1C(=NC2CCCCC2)SCC1CC(=O)Nc1ccc(F)cc1.Cl (stereo not shown) [KHG24403, (2-cyclohexylimino-3-ethyl-1,3-thiazolidine-4-yl)-N-(4-fluorophenyl)-acetamide hydrochloride] |
| 64.7 | 173.6 to 174.8 | CCCN1C(=NC2CCCCC2)SCC1CC(=O)Nc1ccc(C(F)(F)F)cc1.Cl (stereo not shown) [KHG24404, [2-cyclohexylimino-3-(n-propyl)-1,3-thiazolidine-4-yl]-N-(4-trifluoromethylphenyl)-acetamide hydrochloride] |
| 68.4 | 204.9 | CCCN1C(=NC2CCCCC2)SCC1CC(=O)Nc1ccc(C)c(Cl)c1.Cl (stereo not shown) [KHG24405, (2-cyclohexylimino-3-(n-propyl)-1,3-thiazolidine-4-yl)-N-(3-chloro-4-methylphenyl)-acetamide hydrochloride] |
| 34.4 | 156.2 | CCCCc1ccc(NC(=O)CC2CSC(=NC3CCCCC3)N2Cc2ccccc2)cc1.Cl (stereo not shown) [KHG24406, (2-cyclohexylimino-3-benzyl-1,3-thiazolidine-4-yl)-N-(4-n-butylphenyl)-acetamide hydrochloride] |
| 48.7 | 238.5 | Cl.O=C(CC1CSC(=NC2CCCCC2)N1Cc1ccccc1)Nc1ccc(C(F)(F)F)cc1 (stereo not shown) [KHG24407, (2-cyclohexylimino-3-benzyl-1,3-thiazolidine-4-yl)-N-(4-trifluoromethylphenyl)-acetamide hydrochloride] |
| 32.6 | 194.8 | Cl.O=C(CC1CSC(=NC2CCCCC2)N1Cc1ccccc1)Nc1cc(Cl)ccc1F (stereo not shown) [KHG24408, (2-cyclohexylimino-3-benzyl-1,3-thiazolidine-4-yl)-N-(5-chloro-2-fluorophenyl)-acetamide hydrochloride] |
| 61 | 100.5 | CCN1C(=NC2CCCCC2)SCC1CC(=O)Nc1cc(Cl)cc(Cl)c1.Cl (stereo not shown) [KHG24414, (2-cyclohexylimino-3-ethyl-1,3-thiazolidine-4-yl)-N-(3,5-dichlorophenyl)-acetamide hydrochloride] |
| 64.2 | 109.2 | CCCN1C(=NC2CCCCC2)SCC1CC(=O)Nc1cc(Cl)cc(Cl)c1.Cl (stereo not shown) [KHG24415, [2-cyclohexylimino-3-(n-propyl)-1,3-thiazolidine-4-yl]-N-(3,5-dichlorophenyl)-acetamide hydrochloride] |
| 59.8 | 153 to 154 | CCCCN1C(=NC2CCCCC2)SCC1CC(=O)Nc1cc(Cl)cc(Cl)c1.Cl (stereo not shown) [KHG24416, [2-cyclohexylimino-3-(n-butyl)-1,3-thiazolidine-4-yl]-N-(3,5-dichlorophenyl)-acetamide hydrochloride] |
| 59.1 | 238 to 240 | CN1C(=NC23CC4CC(CC(C4)C2)C3)SCC1CC(=O)Nc1cc(Cl)cc(Cl)c1.Cl (stereo not shown) [KHG24417, [2-(1-adamantyl)imino-3-methyl-1,3-thiazolidine-4-yl]-N-(3,5-dichlorophenyl)-acetamide hydrochloride] |
| 56.9 | 234 to 236 | Cc1ccc(NC(=O)CC2CSC(=NC34CC5CC(CC(C5)C3)C4)N2C)c(Cl)c1.Cl (stereo not shown) [KHG24418, [2-(1-adamantyl)imino-3-methyl-1,3-thiazolidine-4-yl]-N-(2-chloro-4-methylphenyl)-acetamide hydrochloride] |
| 46.7 | 227 to 229 | COc1ccc(NC(=O)CC2CSC(=NC34CC5CC(CC(C5)C3)C4)N2C)cc1.Cl (stereo not shown) [KHG24419, [2-(1-adamantyl)imino-3-methyl-1,3-thiazolidine-4-yl]-N-(4-methoxyphenyl)-acetamide hydrochloride] |
| 58.5 | 115 | CCN1C(=NC2CCCCC2)SCC1CC(=O)Nc1ccc(C)cc1Cl.Cl (stereo not shown) [KHG24420, (2-cyclohexylimino-3-ethyl-1,3-thiazolidine-4-yl)-N-(2-chloro-4-methylphenyl)-acetamide hydrochloride] |
| 65.8 | 143 to 144 | CCCCN1C(=NC2CCCCC2)SCC1CC(=O)Nc1ccc(C)cc1Cl.Cl (stereo not shown) [KHG24421, (2-cyclohexylimino-3-(n-butyl)-1,3-thiazolidine-4-yl)-N-(2-chloro-4-methylphenyl)-acetamide hydrochloride] |
